“Also recorded” adds a separate entry of the source. Structures can show the parent of a compound that is named as a salt. Where two headings read alike, the source gives them in different places.
Legend:
[1] = in water; cited from earlier work
[2] = tested on: Pseudomonas aeruginosa, ATCC 27853; assay: Zone of inhibition, antimicrobials in AOT and Cavilon, TSA plates; assay type: cell-based; conditions: for ZOI 24 h / ZOI 48 h / ZOI 72 h: agent with AOT in Cavilon polymer, HMDS/ISO, 0.1 mL per cylinder, Neosporin 100 μL; for ZOI behaviour in words: with AOT in Cavilon polymer, over three days
Experimental: (§1) All microbiological testing was done by INCELL Corporation, San Antonio, Tex. All zones of inhibition data were measured in mm.
(§2) The zones of inhibition testing for methicillin-resistant Staphylococcus aureus and Pseudomonas aeruginosa were performed as described below. The bacteria were purchased from ATCC and expanded in Tryptic soy broth overnight. Each of the bacteria cultures was then spread onto Tryptic soy agar (TSA) plates. Sterile cloning cylinders containing the biologically-active agent in a volatile, hydrophobic solvent (0.1 mL per cylinder) were placed on the TSA plates and allowed to air dry for 1 h at room temperature. Neosporin was used as a positive control. The TSA plates were observed and photographed after 24 h, 48 h, and 72 h. Images were used to measure zone of inhibition or areas of clearing surrounding the delivered material.
(§3) The polymer substrate chosen for the sustained release studies of biologically-active antimicrobial over time was Cavilon. The Cavilon solution is composed of a proprietary acrylate polymer and a smaller amount of polyphenylmethylsiloxane in HMDS and ISO. This was used as a negative control for all zone of inhibition studies (Tables 8-10).

[3] = tested on: methicillin-resistant Staphylococcus aureus, ATCC 700787; assay: as above; assay type: cell-based
Experimental: as §1, §2, §3

[4] = tested on: Candida albicans, ATCC 10231; assay: as above; assay type: cell-based; conditions: for ZOI 24 h / ZOI 48 h / ZOI 72 h: agent with AOT in Cavilon polymer, HMDS/ISO, 0.1 mL per cylinder, Roccal 1 %
Experimental: as §1
The zones of inhibition testing was also performed with Candida albicans, purchased from ATCC and expanded in Tryptic soy broth overnight. This fungi culture was diluted to 0.1 OD 600 units and spread onto TSA plates. Sterile cloning cylinders were placed on the TSA plates, charged with the biologically-active agent in a volatile, hydrophobic solvent (0.1 mL per cylinder) and allowed to air dry for 1 h at room temperature. A 1% Roccal solution was used as a positive control. The TSA plates were observed and photographed after 24 h, 48 h, and 72 h. Images were used to measure zone of inhibition or areas of clearing surrounding the delivered material.
as §3

[5] = tested on: L929 mouse fibroblast cell; assay: Cytotoxicity testing, agar overlay with neutral red; conditions: for Zone Size / Grade (biological reactivity): 0.05 wt % AOT in Cavilon; for Zone Size: applied to agar surface; for Grade (biological reactivity): scale Grade 0 to Grade 4
Experimental: Also of consideration for application to animal and human skin is the potential of toxicity to mammalian cells for reverse emulsion surfactants such as AOT. […] […] Cavilon solution without AOT was used as a negative control.
The biological reactivity of L929 mouse fibroblast cell in response to the AOT Cavilon solution was determined. The monolayer of fibroblasts was cultured in an agar plate, and the cell viability was evaluated using a vital dye (neutral red). The AOT Cavilon solution was applied directly to the surface of the agar. Positive (Buna-N-Rubber) and negative (Negative Control Plastic, Cavilon solution) control articles were prepared to verify the proper functioning of the test system. The cultures were incubated at 37±1° C., in a humidified atmosphere containing 5±1% carbon dioxide. Zone of inhibition was measured, and biological reactivity (cellular degeneration and malformation) was rated on a scale from Grade 0 (No reactivity) to Grade 4 (Severe reactivity) at 24 and 48 hours. The experiment was run in triplicate.

[6] = tested on: albino rabbits; assay: Animal skin-irritation study, Draize scoring; assay type: in vivo, rabbit; conditions: Cavilon solution containing 0.5 wt % AOT
Experimental: Another concern with the use of a reverse emulsion surfactant for its application to mammalian skin is its potential to cause skin irritation. It has been reported that in water solution AOT can be irritating to skin (M. Changez and M. Varshney, Drug Development and Industrial Pharmacy, 26(5), 507-512 (2000)). To test if AOT is skin-irritating when used in a volatile, hydrophobic solvent with the presence of polymer, an animal skin-irritation study was conducted by Toxikon Corporation, Cavilon solution containing 0.5 wt % AOT was examined, and Cavilon solution was used as a negative control.
Three albino rabbits were used for the skin irritation study. The application sites were prepared by clipping the skin of the trunk free of hair within 24 h before application of the test and control substances. The animals were treated by applying an AOT-containing Cavilon solution and the Cavilon negative control (0.5 mL) directly onto skin over a skin area of approximate 6 cm^2. The test solution was applied to the skin on the left side of the spine and the control solution was applied to the skin on the right side of the spine. The AOT solution and the negative control were each applied sequentially to three sites, and observed at 6, 24, 48, and 72 h for signs of erythema and edema. Observations were scored according to the Draize Scale for Scoring. […]

[7] = tested on: Gram positive bacteria such as Staphylococcus aureus; conditions: reported, G. N. Kern; cited from earlier work
[8] = tested on: Gram negative bacteria such as Pseudomonas aeruginosa; conditions: reported, G. N. Kern; cited from earlier work
[9] = tested on: Candida albicans; conditions: reported, G. N. Kern; cited from earlier work
[10] = tested on: mammalian cells such as fibroblasts, kidney cells, and cancer cells; conditions: in water solution; cited from earlier work
[11] = in water solution; cited from earlier work
[12] = Solubility in non-polar hydrophobic solvents ISO and HMDS; assay type: physicochemical; conditions: without reverse emulsion surfactant
Excerpt: For all formulations in the following Examples, each biologically-active agent was inherently insoluble in the non-polar, hydrophobic solvents tested, namely, isooctane (ISO) and hexamethyldisiloxane (HMDS). Solubility occurred in the presence of a reverse emulsion surfactant, with or without the presence of added water, to give optically clear, homogeneous solutions. Since the concentrations of the biologically-active agents (Active) were considerably less than that of the solvent used, the data in the Tables pertaining to all ingredients were rounded-off to the next highest number.

[13] = 24 h, agent with AOT in Cavilon polymer, HMDS/ISO, 0.1 mL per cylinder, Neosporin 100 μL
[14] = 48 h, agent with AOT in Cavilon polymer, HMDS/ISO, 0.1 mL per cylinder, Neosporin 100 μL
[15] = 72 h, agent with AOT in Cavilon polymer, HMDS/ISO, 0.1 mL per cylinder, Neosporin 100 μL
[16] = with AOT in Cavilon polymer, over three days

CCCCC(CC)CNC(=N)NC(=N)NCCCCCCNC(=N)NC(=N)NCC(CC)CCCC (stereo not shown) [ALEX, 1,1′-hexamethylenebis[5-(2-ethylhexyl)biguanide]dihydrochloride]
water solubility [1]: 0.1%

CCCCC(CC)COC(=O)CC(C(=O)OCC(CC)CCCC)S(=O)(=O)[O-].[Na+] (stereo not shown) [AOT, sodium bis(2-ethylhexyl)sulfosuccinate]
ZOI 24 h [2]: 8.18 mm
ZOI 48 h [2]: 8.22 mm
ZOI 72 h [2]: 11.2 mm
ZOI behaviour in words [2]: considerably more effective against Pseudomonas aeruginosa than Neosporin; also recorded: highly effective
ZOI 24 h [3]: 5.34 mm
ZOI 48 h [3]: 6.3 mm
ZOI 72 h [3]: 5.32 mm
ZOI behaviour in words [3]: active
ZOI 24 h [4]: 12.7 mm
ZOI 48 h [4]: 12.4 mm
ZOI 72 h [4]: 13.3 mm
Zone Size ([5]; 24 hours): 0 cm
Grade (biological reactivity) ([5]; 24 hours): 0
Zone Size ([5]; 48 hours): 0 cm
Grade (biological reactivity) ([5]; 48 hours): 0
toxicity to mammalian cells, in words ([5]; AOT Cavilon solution, 0.5 wt % AOT): not toxic
signs of erythema or edema ([6]; 0.5 mL on skin, observed at 6, 24, 48, and 72 h): None of the AOT solution sites presented any signs of erythema or edema
skin irritation classification ([6]; Draize Scale): non-irritant
antibacterial activity, in words [7]: active
antibacterial activity, in words [8]: inactive
antifungal activity, in words [9]: effective
cytotoxic concentration [10]: 0.002 wt %
skin irritation, in words [11]: irritating

O=[N+]([O-])[O-].[Ag+] [AgNO3, Silver Nitrate]
ZOI 24 h [3, 13]: 8.16 mm
ZOI 48 h [3, 14]: 9 mm
ZOI 72 h [3, 15]: 8.18 mm
ZOI behaviour in words [3, 16]: highly effective

N=C(NCCCCCCNC(=N)NC(=N)Nc1ccc(Cl)cc1)NC(=N)Nc1ccc(Cl)cc1.O=C(O)[C@H](O)[C@@H](O)[C@H](O)[C@H](O)CO.O=C(O)[C@H](O)[C@@H](O)[C@H](O)[C@H](O)CO [CHG, Chlorhexidine Digluconate]
ZOI 24 h [2]: 2.77 mm
ZOI 48 h [2]: 0 mm
ZOI 72 h [2]: 0 mm
ZOI behaviour in words [2]: less effective
ZOI 24 h [3, 13]: 11.53 mm
ZOI 48 h [3, 14]: 11.03 mm
ZOI 72 h [3, 15]: 11.67 mm
ZOI behaviour in words [3, 16]: exceptional results
water solubility [1]: 20%

Clc1ccc(COC(Cn2ccnc2)c2ccc(Cl)cc2Cl)c(Cl)c1 (stereo not shown) [MICON, Miconazole Nitrate]
ZOI 24 h [4]: 16.5 mm
ZOI 48 h [4]: 14.9 mm
ZOI 72 h [4]: 15 mm
ZOI behaviour in words [4, 16]: superior to that of AOT by itself and PHMB with AOT

NC[C@@H]1O[C@H](O[C@@H]2[C@@H](CO)OC(O[C@@H]3[C@@H](O)[C@H](N)C[C@H](N)[C@H]3OC3O[C@H](CN)[C@@H](O)[C@H](O)[C@H]3N)[C@@H]2O)[C@H](N)[C@@H](O)[C@@H]1O (stereo partly shown) [NEO, Neomycin Trisulfate]
ZOI 24 h [2]: 7.43 mm
ZOI 48 h [2]: 6.41 mm
ZOI 72 h [2]: 7.61 mm
ZOI 24 h [3, 13]: 8.95 mm
ZOI 48 h [3, 14]: 8.94 mm
ZOI 72 h [3, 15]: 9.71 mm
ZOI behaviour in words [3, 16]: highly effective

CCCCCCCCCCCC(=O)[O-].[Na+] [SL, sodium dodecanoate]
solubility in isooctane (ISO) and hexamethyldisiloxane (HMDS) [12]: insoluble

Reference: patent US8852648B2, “Delivery of biologically-active agents using volatile, hydrophobic solvents” (Rochal Industries, LLP, priority 2012, dated 2014)
